According to patent US8338411B2, “Compounds” (Sanofi, priority 2007, dated 2012):
≈ marks a conversion by molar mass, not a printed value.

Key:
[1] = tested on: Ovalbumin induced cell migration; assay: Allergic mouse model (ovalbumin induced cell migration); type: in vivo; conditions: % inhibition (full), p.o. mice 24 h, 10 mg/kg CMC
Description: Male BalbC mice of 20-25 g body weight are used for the experiments. The animals are first allergized with ovalbumin, then three weeks after the first ovalbumin injection they are involved into the experiment. On the day of the experiment the mice are treated (per os) with the experimental material (or with the vehicle containing no active ingredient), then after a suitable waiting period they are narcotized. After surgical opening of the trachea, 10 microliter of 1% ovalbumin solution is injected into the trachea.
The control group receives vehicle (physiological salt solution) into the trachea. After surgical closing of the trachea and treatment of the wound, the animals are separated and kept under their usual life conditions for 24 h.
After 24 hours the animals are over narcotized, the trachea is opened again and the lung is washed with buffer solution. The buffer solution is centrifuged, the cell sediment is resuspended again, and then the cells are counted. The total cell number is determined and the different leukocytes are sorted on the bases of the morphology. To determine the effectivity of the experimental material, the inhibition % is calculated in comparison to the control group. To determine the significance of the effect, statistical evaluation is carried out.

[2] = target: T1, human adenosine A3 receptor (Homo sapiens, UniProt P0DMS8); assay: Human adenosine A3 receptor binding ([125I]AB-MECA, CHO-hA3 membranes); conditions: CHO-hA3 membrane, 0.5 nM [125I]AB-MECA
T1 construct: host or cells: CHO cells (CHO-hA3), membrane preparation
T1 sequence (P0DMS8 1-318): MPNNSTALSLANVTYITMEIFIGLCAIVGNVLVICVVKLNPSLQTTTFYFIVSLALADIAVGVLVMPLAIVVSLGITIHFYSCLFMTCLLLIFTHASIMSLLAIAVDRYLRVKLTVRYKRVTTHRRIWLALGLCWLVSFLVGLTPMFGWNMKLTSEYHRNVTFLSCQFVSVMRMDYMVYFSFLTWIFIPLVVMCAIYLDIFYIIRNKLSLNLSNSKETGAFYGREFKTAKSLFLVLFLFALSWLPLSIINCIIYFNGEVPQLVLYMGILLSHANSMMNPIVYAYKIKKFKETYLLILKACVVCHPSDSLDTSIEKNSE
Description: Human Adenosine A3 Receptor Binding
Preparing membrane suspension: ovarium cells of cloned […] hamster expressing human A3 receptor (further: CHO-hA3) are appropriately cultured. Achieving confluent cell layer, the cultivating liquid is removed from the cells by washing them with 37° C. PBS, then the cell are suspended in ice cold PBS, washed 3 times with PBS, centrifuged (1000×g 10 minutes) (Sigma 3K30) and homogenated using teflon homogenizer (B. Braun Potter S) at 1500/min rotation speed, for 15 sec. in the following buffer: 50 mM Tris, 10 mM MgCl2, 1 mM EDTA, pH 8.0. The homogenate is centrifuged (43.000 g, 10 min). The precipitate is suspended in the above buffer, protein concentration 0.1 mg/ml (Bradford method). Aliquots of the membrane preparatum are store at −80° C. hA3-CHO membrane preparation from Perkin Elmer was used alternatively.
Binding protocol: incubate CHO-hA3 membrane preparation (2 μg protein content) in the presence of the test material and 0.5 nM [^125I]AB-MECA (4-amino-3-iodo-benzyl-5′-N-methylcarboxamide-adenosine) (100.000 cpm) in incubation buffer (50 mM Tris, 10 mM MgCl2, 1 mM EDTA, 3 U/mL adenosine deaminase, pH 8.0). Define the non-specific radioligand binding in the presence of 100 μM R-PIA (N^6[L-2-phenylisopropyl]adenosine). Total volume of the reaction is 50 μL for 60 min at room temperature. […] Detect the radioactivity in gamma-counter (1470 Wizard, Wallac). […]
Based on the radioisotope saturation curves using Scatchard analysis (G. Scatchard, Ann. N.Y. Acad. Sci. 51:660, 1949) the dissociation constant (Kd) of the radioligand [^125I]AB-MECA on the CHO-hA3 membrane preparate is determined. From the Kd values, applying the Cheng-Prusoff equation (Y. J. Cheng and W. H. Prusoff, Biochem. Pharmacol. 22:3099, 1973) the affinity constants (Ki) of the test compounds are calculated from their IC50 values.

[3] = Solubility; type: physicochemical

Row | SMILES | Inhibition of cell migration [1] [%] | IC50 [2] [nM] | solubility ([3]; pH 1, simulated gastric fluid) [µg/mL] | solubility ([3]; pH 6.5, aqueous buffer) [µg/mL] | solubility ([3]; pH 7.5, aqueous buffer) [µg/mL]
1 | COc1cccc(-c2nc3c(C#N)c(NCc4ccccc4)c4cc(N5CCOCC5)ccc4n3n2)c1 [Example 1, 2-(3-methoxyphenyl)-7-(morpholin-4-yl)-9-benzylamino-10-cyano-s-triazolo[1,5-a]quinoline] | 81 | 38 | 500 (≈ 1020 µM) | 0.2 (≈ 0.408 µM) | 2 (≈ 4.08 µM)
2 | CN1CCN(c2ccc3c(c2)c(NCc2ccccc2)c(C#N)c2nc(-c4ccccc4)nn23)CC1 [Example 17] | 88 | 7.7 | 3000 (≈ 6330 µM) | 0.5 (≈ 1.06 µM) | 5 (≈ 10.6 µM)
3 | CN1CCN(c2ccc3c(c2)c(NCc2ccccc2)c(C#N)c2nc(-c4ccc(F)cc4)nn23)CC1 [Example 18] | 57 | 11 | 2500 (≈ 5090 µM) | 0.5 (≈ 1.02 µM) | 13 (≈ 26.4 µM)
